In patent US11976075B2, “Inhibitors of the MYST family of lysine acetyl transferases” (Isosterix, Inc., priority 2022, dated 2024) one finds EC50 and IC50 data, which are given here for nine compounds.

Usually EC50 stands for the concentration that produces a half-maximal response. A higher EC50 goes with lower potency in that assay. Usually IC50 stands for the point on the concentration scale where inhibition reaches its midpoint.

One assay concerns ZR-75-1. Description: In Vitro Cancer Cell Assay (cell viability, Cell Titer Glow, 10 days). The note with it: Homo sapiens; ZR-75-1 cells; Table 2. It counts as cell-based. Here is the method:
ZR-75-1 and T47D are breast cancer cell lines containing high KAT6A protein expression. Proliferation of these cell lines are inhibited upon treatment with a KAT6A inhibitor. Cell line MCF7 is used as a negative control. MCF7 cells have a low KAT6A protein expression and are not growth inhibited upon treatment with KAT6A inhibitors. WM-1119 is used as a positive control.
1500 cells are seeded per well and incubated overnight at 37° C. and 5% CO2. Cells are treated after 24 hours with a compound (stock solution, 10 mM in DMSO) with 9-10 dilutions and a final DMSO concentration of 0.5%. […] Test compounds are tested like WM-1119. Plates are incubated at 37° C. and 5% CO2 for 10 days. Media is replenished after every alternate day. At day 10, Cell Titer Glow is added to the wells and luminescence is recorded after 10 min incubation. Data are normalized to 100% with DMSO control and subtracting media blank. Cell viability is of the test compounds is measured.
The above procedure can be followed for determining activity in additional cell lines, for example, ZR-75-1, T47D, CHAGOK1 and other cell lines that have high expression of KAT6A. The number of cells used will be optimized based on growth rate of the individual cell lines.
Background: Cellular ATP, detected with luciferase, serves as a proxy for viable cell number.

Assay [1] addresses T1, Recombinant KAT6A/MOZ (488-778) protein (Homo sapiens, UniProt Q92794).
T1 construct: Recombinant KAT6A/MOZ (488-778) protein (Active motif, Catalog #81223); purchased Active Motif 81223
Description: Kat6a AlphaLISA Inhibition Screening Assay. The note with it: 60′ pre-incubation; Table 2; read-out: Kat6A biochemical assay: IC50. It counts as biochemical. The method, boiled down: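 Recombinant KAT6A (488-778), 25 nM, was preincubated with compound (10-point dose response) for 60 or 10 min. It then reacted 120 min at room temperature with 200 nM biotin-H3(1-21) peptide and 400 nM acetyl-CoA, pH 8.0, with 330 nM TSA present. Acetylation was detected by AlphaLISA (anti-acetyl-lysine acceptor, streptavidin donor beads).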
(Bead proximity is the source of the signal in Alpha formats.)

T1 sequence (Q92794 488-778): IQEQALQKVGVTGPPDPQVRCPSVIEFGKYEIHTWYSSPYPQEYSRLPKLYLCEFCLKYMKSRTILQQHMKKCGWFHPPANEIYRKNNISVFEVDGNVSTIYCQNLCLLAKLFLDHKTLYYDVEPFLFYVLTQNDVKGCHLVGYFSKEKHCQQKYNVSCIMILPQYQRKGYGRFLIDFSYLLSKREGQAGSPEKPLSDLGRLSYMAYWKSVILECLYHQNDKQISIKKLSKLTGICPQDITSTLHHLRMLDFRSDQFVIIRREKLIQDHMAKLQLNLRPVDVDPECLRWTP

On to `C#CC(=O)N1Cc2cnn(Cc3cc(OC)c4c(NS(=O)(=O)c5ccccc5OC)noc4c3)c2C1` [Synthetic Example 26A, 2-methoxy-N-(4-methoxy-6-((5-propioloyl-5,6-dihydropyrrolo[3,4-c]pyrazol-1(4H)-yl)methyl)benzo[d]isoxazol-3-yl)benzenesulfonamide], for which the EC50 in the assay on ZR-75-1 is no more than 10 µM. Besides, the IC50 in assay [1] was no more than 10 µM.
The compound `C#CC(=O)N1Cc2cnn(Cc3cc(OC)c4c(NS(=O)(=O)CC5CCCCC5)noc4c3)c2C1` [Synthetic Example 30A, 1-cyclohexyl-N-(4-methoxy-6-((5-propioloyl-5,6-dihydropyrrolo[3,4-c]pyrazol-1(4H)-yl)methyl)benzo[d]isoxazol-3-yl)methanesulfonamide] showed an EC50 in the assay on ZR-75-1 of no more than 10 µM. Further, the IC50 in assay [1] was no more than 10 µM.
The compound `C#CC(=O)NCc1cnn(Cc2cc(OC)c3c(NS(=O)(=O)c4ccccc4OC)noc3c2)c1` [Synthetic Example 31, N-((1-((4-methoxy-3-((2-methoxyphenyl)sulfonamido)benzo[d]isoxazol-6-yl)methyl)-1H-pyrazol-4-yl)methyl) propiolamide] came in with an EC50 in the assay on ZR-75-1 of no more than 10 µM. Also, the IC50 in assay [1] was no more than 10 µM.
On to `C=CS(=O)(=O)NCc1cnn(Cc2cc(OC)c3c(NS(=O)(=O)c4ccccc4OC)noc3c2)c1` [Synthetic Example 32, 2-methoxy-N-(4-methoxy-6-((4-(vinylsulfonamidomethyl)-1H-pyrazol-1-yl)methyl)benzo[d]isoxazol-3-yl)benzenesulfonamide], for which the EC50 with ZR-75-1 was no more than 10 µM. Besides, the IC50 in assay [1] is no more than 10 µM.
In turn, `C=CS(=O)(=O)NCc1cnn(Cc2cc(OC)c3c(NS(=O)(=O)c4c(OC)cccc4OC)noc3c2)c1` [Synthetic Example 33, 2,6-dimethoxy-N-(4-methoxy-6-((4-(vinylsulfonamidomethyl)-1H-pyrazol-1-yl)methyl)benzo[d]isoxazol-3-yl)benzenesulfonamide] displayed an EC50 with ZR-75-1 of no more than 10 µM. For the same compound, the IC50 in assay [1] is no more than 10 µM.
On to `C#CC(=O)NCc1cnn(Cc2cc(OC)c3c(NS(=O)(=O)c4ccccc4C(=O)OC)noc3c2)c1` [Synthetic Example 36, methyl 2-(N-(4-methoxy-6-((4-(propiolamidomethyl)-1H-pyrazol-1-yl)methyl)benzo[d]isoxazol-3-yl)sulfamoyl)benzoate], for which the EC50 with ZR-75-1 is no more than 10 µM. In addition, the IC50 in assay [1] was no more than 10 µM.
Consider `C#CC(=O)NCc1cnn(Cc2cc(OC)c3c(NS(=O)(=O)c4ccccc4C(=O)O)noc3c2)c1` [Synthetic Example 37, 2-(N-(4-methoxy-6-((4-(propiolamidomethyl)-1H-pyrazol-1-yl)methyl)benzo[d]isoxazol-3-yl)sulfamoyl)benzoic acid], for which, in the assay with ZR-75-1, the EC50 was no more than 10 µM. The half-maximal inhibitory concentration (IC50) in assay [1] was no more than 10 µM.
`C#CC(=O)NCc1cnn(Cc2cc(OC3CC3)c3c(NS(=O)(=O)c4ccccc4OC)noc3c2)c1` [Synthetic Example 43, N-((1-((4-cyclopropoxy-3-((2-methoxyphenyl)sulfonamido)benzo[d]isoxazol-6-yl)methyl)-1H-pyrazol-4-yl)methyl)propiolamide] returned an EC50 with ZR-75-1 of no more than 10 µM. For the same compound, the IC50 in assay [1] was no more than 10 µM.
`C=CS(=O)(=O)NCc1cnn(Cc2cc(OC)c3c(NS(=O)(=O)CC4CCCCC4)noc3c2)c1` [compound 6] yielded an EC50 in the assay on ZR-75-1 of no more than 10 µM. For the same compound, the IC50 in assay [1] is no more than 10 µM.
